Converted amounts (≈) assume the structure as drawn. Counter-ions that a name gives are not always drawn. Like-named read-outs stand apart in the source and are kept apart here.
How the values were obtained:
[1] = system: Staphylococcus aureus subsp. aureus (ATCC29213); test: MIC, broth microdilution (CLSI), Staphylococcus aureus ATCC29213; format: cell-based; settings: for MIC: Staphylococcus aureus
[2] = system: E. coli RNase P RNA, M1 RNA; test: Inhibition of bacterial RNase P activity, IC50 determination (cleavage of pATSerUG by M1 RNA); format: biochemical; settings: NI: No inhibition
[3] = system: Escherichia coli (ATCC25922); test: MIC, broth microdilution (CLSI), Escherichia coli; settings: for MIC: Escherichia coli, ATCC25922, read-out: E. coli ATCC 25922 MIC, Table XIII
[4] = ATCC29213, Table XIII, read-out: S. aureus ATCC 29213 MIC

Row | SMILES | MIC [1, 4] [µg/mL] | IC50 [2] [µM] | MIC [3] [µg/mL] | S. aureus ATCC 29213 MIC ([1]; Table XIII, hydrochloride salt) [µg/mL] | IC50 ([2]; hydrochloride salt) [µM] | E. coli ATCC 25922 MIC ([3]; Table XIII, hydrochloride salt) [µg/mL] | MIC ([1]; ATCC29213, read-out: S. aureus ATCC 29213 MIC, Table XIII) [µg/mL]
1 | Cc1cccc(C(CCNC2CCC(N)CC2)c2cn(C3CCCCC3)c3ccccc23)c1 [Compound 395, (1S,4S)- -N1-(3-(1-cyclohexyl-1H-indol-3-yl)-3-(m-tolyl)propyl) cyclohexane-1,4-diamine hydrochloride salt] | – | – | – | 1 | 8.2 | 8 | –
2 | Cc1cccc(C(CCNCCCN)c2cn(C3CC4CCC3C4)c3ccccc23)c1.Cl.Cl (stereo not drawn) [Compound 341, N1-(3-(1-(bicyclo[2.2.1]heptan-2-yl)-1H-indol-3-yl)-3-(m-tolyl)propyl)propane-1,3-diamine hydrochloride salt] | 8 | 32 | 4 | – | – | – | –
3 | NCCCNC1CCCC(c2cn(C3CCCCC3)c3ccc(-c4cccc(OC(F)(F)F)c4)cc23)C1 (stereo not drawn) [Compound 404, N1-(3-(1-cyclohexyl-5-(3-(trifluoromethoxy)phenyl)-1H-indol-3-yl)cyclohexyl)propane-1,3-diamine hydrochloride salt] | – | 4.8 | 8 | – | – | – | 4
4 | Cc1cccc(C(CCNCCCN)c2cn(C3CCNCC3)c3ccccc23)c1.Cl.Cl.Cl (stereo not drawn) [Compound 322, N1-(3-(1-(piperidin-4-yl)-1H-indol-3-yl)-3-(m-tolyl)propyl)propane-1,3-diamine hydrochloride salt] | 16 | 120 | > 128 | – | – | – | –
5 | Cc1cccc(C(CCN[C@H]2CC[C@H](N)CC2)c2cn(C3CCCCC3)c3ccc(-c4ccnn4C)cc23)c1.Cl.Cl (stereo partly drawn) [Compound 409, (1R,4R)-N1-(3-(1-cyclohexyl-5-(1-methyl-1H-pyrazol-5-yl)-1H-indol-3-yl)-3-(m-tolyl)propyl)cyclohexane-1,4-diamine hydrochloride salt] | 4 | 39 | 16 | – | – | – | –
6 | NCCCNCCC(c1cn(C2CCCCC2)c2ccccc12)C1CCCCC1 (stereo not drawn) [Compound 383, N1-(3-cyclohexyl-3-(1-cyclohexyl-1H-indol-3-yl)propyl)propane-1,3-diamine] | 4 (≈ 10.1 µM) | 28 | 4 (≈ 10.1 µM) | – | – | – | –
7 | Cl.Cl.NCCCNCCC(c1cccc(F)c1)c1cn(C2CCCCC2)c2ccccc12 (stereo not drawn) [Compound 344, N1-(3-(1-cyclohexyl-1H-indol-3-yl)-3-(3-fluorophenyl)propyl) propane-1,3-diamine hydrochloride salt] | 8 | 52 | 4 | – | – | – | –

Further molecules by falling MIC [1, 4], results first:

Row | MIC [1, 4] [µg/mL] | IC50 [2] [µM] | MIC [3] [µg/mL] | SMILES | S. aureus ATCC 29213 MIC ([1]; Table XIII, hydrochloride salt) [µg/mL] | IC50 ([2]; hydrochloride salt) [µM] | E. coli ATCC 25922 MIC ([3]; Table XIII, hydrochloride salt) [µg/mL] | MIC ([1]; ATCC29213, read-out: S. aureus ATCC 29213 MIC, Table XIII) [µg/mL]
8 | 4 | 23 | 8 | Cl.Cl.N#Cc1ccc2c(c1)c(C(CCN[C@H]1CC[C@H](N)CC1)C1CCCCC1)cn2C1CCCCC1 (stereo partly drawn) [Compound 407, 3-(3-(((1R,4R)-4-aminocyclohexyl)amino)-1-cyclohexylpropyl)-1-cyclohexyl-1H-indole-5-carbonitrile salt] | – | – | – | –
9 | 4 | 21 | 8 | Cc1cccc(CC(CCNC2CCC(N)CC2)c2cn(C3CCCCC3)c3ccccc23)c1.Cl.Cl [Compound 408, (1R,4R)-N1-(3-(1-cyclohexyl-1H-indol-3-yl)-4-(m-tolyl)butyl)cyclohexane-1,4-diamine hydrochloride salt] | – | – | – | –
10 | 4 (≈ 8.89 µM) | 8.3 | 8 (≈ 17.8 µM) | CC(C)=CCC/C(C)=C/Cn1cc(C(CCNCCCN)C2CCCCC2)c2ccccc21 (stereo not drawn) [Compound 421, (E)-N1-(3-cyclohexyl-3-(1-(3,7-dimethylocta-2,6-dien-1-yl)-1H-indol-3-yl)propyl)propane-1,3-diamine] | – | – | – | –
11 | 4 | 19 | 4 | Cc1cccc(-c2ccc3c(c2)c(CCNCCCN)cn3C2CCCCC2)c1.Cl.Cl [Compound 384, N1-(2-(1-cyclohexyl-5-(m-tolyl)-1H-indol-3-yl)ethyl)propane-1,3-diamine hydrochloride salt] | – | – | – | –
12 | 2 (≈ 4.59 µM) | 8.4 | 2 (≈ 4.59 µM) | NCCCNC1CCCC(c2cn(C3CCCCC3)c3ccc(C4CCCCC4)cc23)C1 (stereo not drawn) [Compound 420, N1-(3-(1,5-dicyclohexyl-1H-indol-3-yl)cyclohexyl)propane-1,3-diamine] | – | – | – | –

From patent publication US20210246115A1 (Bioimics AB, priority 2017, published 2021)
